{
  "source": "patent US10821152B2",
  "about": "“Methods, agents and compositions for treatment of inflammatory conditions” (Betanien Hospital, priority 2014, dated 2020)",
  "test_system": "patient with multiple sclerosis",
  "test": "Treatment of progressive multiple sclerosis with Degarelix, with concomitant Famprydine",
  "format": "in vivo, human",
  "details": "MS patient",
  "procedure": "• person, diagnosed with multiple sclerosis (MS). Their MS was of the progressive type; characterized by a steady deterioration in function. • Fulfilled the 2010 McDonald Criteria for the diagnosis of MS 1. Experimental Treatment • So far results of clinical trials for progressive MS have generally been disappointing. Currently, there is no FDA approved treatment for progressive MS disease. • December 2014 received first dose of Degarelix 240 mg sc. • Received Degarelix 80 mg s.c every two weeks thereafter. Difficulties in Assessing Response in Progressive MS • Almost all trials in progressive MS show a worsening in function over time. The primary endpoint of these trials is usually to be able to show less worsening in the active treatment group compared to the placebo/other treatment group. Worsening is often defined as an increase in the Expanded Disability Status Scale (EDSS). EDSS is severely restrictive as an outcome measure for trials in progressive sclerosis.^2 Trials have not shown improvements in the EDSS or function in MS patients.^2 Optimal outcome measures in progressive MS are open to debate. • Effective imaging outcomes in clinical trials have allowed for the development of treatments for the relapsing-remitting type of MS. […] One of the most important factors in choosing outcome measures for these patients is the meaningfulness to patients. Assessment of Response at 6 Weeks\nThis was particularly evident in their ability to raise their feet onto a step, physiotherapy exercises, and dressing. In the past year, they previously had always required their spouse's help to climb a step at home, or to carry out certain lower limb exercises with their physiotherapist. By 4 weeks of GnRH antagonist treatment, they no longer required their spouse's help/physiotherapist's help to perform these activities. They climbed onto a step unaided at […] checkup. The improvement started at around 4 weeks after the initiation of therapy, and continued to improve further by 6 weeks. Expanded Disability Status Scale (EDSS): • This patient's EDSS has remained stable at 6.5, as expected over such a short time period of 6 weeks. A score of 6.5 is equivalent to only being able to walk with the aid of a walker, as in their case. This was evident at baseline and 6 weeks. Multiple Sclerosis Impact Scale 29 (MSIS-29): • Patient-reported outcomes are of increasing importance in trials of progressive multiple sclerosis.^2The most frequently used global patient-reported outcome in multiple sclerosis is the MSIS-29.^3 This has been correlated with clinical and imaging metrics specifically in progressive forms of the disease.^4 According to a recent review,^2 patient reported outcomes in trials of progressive multiple sclerosis can be used to validate MRI or clinical metrics, and increased use of patient-reported outcomes in trials of progressive multiple sclerosis will expected to help satisfy regulators' requirements that treatments show relevant benefit for patients. • At baseline, they scored 121 on the MSIS-29. By 6 weeks, their score was reduced to 110. A clinically significant minimal difference is a score change of 8. Therefore this reduction of 11 in their score is considered clinically significant.^5 Multiple Sclerosis Walking Scale-12 (MSWS-12) • The MSWS-12^6 was designed as a disease-specific patient-based instrument for use in clinical trials and clinical practice, to capture the complex impact of MS on walking ability. […] One of the most important attributes of the MSWS-12 in comparison to other assessments of walking in MS patients, is its responsiveness to change. […] By 6 weeks, their score was reduced to 53. This is a 12% improvement. A minimal clinically significant difference has not yet been established. […]",
  "note": "Non-standard residues stand in square brackets, D forms with d. Residues, ends and D or L forms follow the SMILES beside them. *: point of attachment. dPhe(4-NHCONH2) = NC(=O)Nc1ccc(C[C@@H](N)C(=O)O)cc1; Dihydroorotyl(S) = O=C1C[C@@H](C(=O)*)NC(=O)N1; dPhe(4-Cl) = N[C@H](Cc1ccc(Cl)cc1)C(=O)O; Phe(4-NH2) = Nc1ccc(C[C@H](N)C(=O)O)cc1; d2Nal = N[C@H](Cc1ccc2ccccc2c1)C(=O)O; Lys(iPr) = CC(C)NCCCC[C@H](N)C(=O)O; d3Pal = N[C@H](Cc1cccnc1)C(=O)O",
  "data": [
    {"smiles": "CC(=O)N[C@H](Cc1ccc2ccccc2c1)C(=O)N[C@H](Cc1ccc(Cl)cc1)C(=O)N[C@H](Cc1cccnc1)C(=O)N[C@@H](CO)C(=O)N[C@@H](Cc1ccc(NC(=O)[C@@H]2CC(=O)NC(=O)N2)cc1)C(=O)N[C@H](Cc1ccc(NC(N)=O)cc1)C(=O)N[C@@H](CC(C)C)C(=O)N[C@@H](CCCCNC(C)C)C(=O)N1CCC[C@H]1C(=O)N[C@H](C)C(N)=O", "note": "[Degarelix] (Ac-[d2Nal][dPhe(4-Cl)][d3Pal]S[Phe(4-NH2)](Dihydroorotyl(S))[dPhe(4-NHCONH2)]L[Lys(iPr)]P[dA]-NH2)", "values": [
      {"measurement": "timed walk", "setting": "29 Apr. 2015, after discontinuing Famprydine on 5 Apr. 2015", "value": 14.0, "unit": "s"},
      {"measurement": "MFIS-5", "setting": "baseline", "value": 20},
      {"measurement": "MSIS-29", "setting": "baseline", "value": 121},
      {"measurement": "MSWS-12", "setting": "baseline", "value": 60},
      {"measurement": "Expanded Disability Status Scale (EDSS)", "setting": "baseline and 6 weeks", "value": 6.5},
      {"measurement": "Timed 25 Foot Walk (T25FW)", "setting": "baseline, stable Famprydine", "value": 16.7, "unit": "s"},
      {"measurement": "timed walk", "setting": "by 2 months, with Famprydine", "value": 14.0, "unit": "s"},
      {"measurement": "timed walk", "setting": "by 4 months, with Famprydine", "value": 11.9, "unit": "s"},
      {"measurement": "timed walk", "setting": "by 5 months (30 Mar. 2015), with Famprydine", "value": 11.8, "unit": "s"},
      {"measurement": "MFIS-5", "setting": "by 6 weeks", "value": 12},
      {"measurement": "MFIS-5 reduction", "setting": "by 6 weeks", "value": 40, "unit": "%"},
      {"measurement": "MSIS-29", "setting": "by 6 weeks", "value": 110},
      {"measurement": "MSWS-12", "setting": "by 6 weeks", "value": 53},
      {"measurement": "MSWS-12 improvement", "setting": "by 6 weeks", "value": 12, "unit": "%"},
      {"measurement": "MSIS-29 score reduction", "setting": "by 6 weeks, clinically significant minimal difference 8", "value": 11},
      {"measurement": "General function (patient reported)", "setting": "from around 4 weeks to 6 weeks", "value": "a general improvement in their function"}
    ]}
  ]
}
